Measured values taken from ChEMBL document CHEMBL1201862, “PubChem BioAssay data set” (2004).
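Assay format: 96-well plates, 48-hour exposure. Here, GI50 denotes the concentration required for 50% inhibition of growth.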 Active and inactive are the calls of the source. Rule as the data show it: active = GI50 up to about 1.1 µM and inactive = higher.

Legend:
Test in all cases: inhibition of tumour cell growth, NCI panel, 48 h
CAKI-1 = tested on: CAKI-1
DU-145 = tested on: DU-145
HCT-116 = tested on: HCT-116
HCT-15 = tested on: HCT-15
HOP-62 = tested on: HOP-62
K562 = tested on: K562
KM12 = tested on: KM12
NCI-H460 = tested on: NCI-H460
NCI-H522 = tested on: NCI-H522
OVCAR-3 = tested on: OVCAR-3
OVCAR-4 = tested on: OVCAR-4
OVCAR-5 = tested on: OVCAR-5
OVCAR-8 = tested on: OVCAR-8
RXF 393 = tested on: RXF 393
SK-MEL-28 = tested on: SK-MEL-28
SN12C = tested on: SN12C
SW-620 = tested on: SW-620
T47D = tested on: T47D
UACC-257 = tested on: UACC-257
UO-31 = tested on: UO-31

SMILES	GI50 (CAKI-1)	GI50 (DU-145)	GI50 (HCT-116)	GI50 (HCT-15)	GI50 (HOP-62)	GI50 (K562)	GI50 (KM12)	GI50 (NCI-H460)	GI50 (NCI-H522)	GI50 (OVCAR-3)	GI50 (OVCAR-4)	GI50 (OVCAR-5)	GI50 (OVCAR-8)	GI50 (RXF 393)	GI50 (SK-MEL-28)	GI50 (SN12C)	GI50 (SW-620)	GI50 (T47D)	GI50 (UACC-257)	GI50 (UO-31)
O=[N+]([O-])/C=C/c1c(Cl)cccc1Cl	3.66 µM (inactive)	9.06 µM (inactive)	2.7 µM (inactive)	1.48 µM	6.38 µM (inactive)	1.68 µM (inactive)	1.58 µM (inactive)	2.61 µM (inactive)	1.61 µM (inactive)	1.3 µM (inactive)	3.56 µM (inactive)	8.95 µM (inactive)	1.4 µM (inactive)	10.4 µM (inactive)	4.97 µM (inactive)	1.53 µM (inactive)	0.966 µM (active)	2.06 µM (inactive)	3.09 µM (inactive)	3.76 µM (inactive)
NC(=O)N/N=C1/CCC(O)CC1CC(=O)O (stereo not given)	> 100 µM (inactive)	> 100 µM (inactive)	> 100 µM (inactive)	> 100 µM	> 100 µM (inactive)	> 100 µM (inactive)	> 100 µM (inactive)	> 100 µM (inactive)	> 100 µM (inactive)	> 100 µM (inactive)	> 100 µM (inactive)	> 100 µM (inactive)	> 100 µM (inactive)	> 100 µM (inactive)	> 100 µM (inactive)	> 100 µM (inactive)	> 100 µM (inactive)	> 100 µM (inactive)	> 100 µM (inactive)	> 100 µM (inactive)
Cc1ccc(C2=Nn3c(nc4sc(-c5ccccc5)cc4c3=O)SC2)cc1	> 100 µM (inactive)	> 100 µM (inactive)	> 100 µM (inactive)	> 100 µM	> 100 µM (inactive)	> 100 µM (inactive)	> 100 µM (inactive)	> 100 µM (inactive)	> 100 µM (inactive)	> 100 µM (inactive)	> 100 µM (inactive)	> 100 µM (inactive)	> 100 µM (inactive)	> 10 µM (inactive)	> 100 µM (inactive)	> 100 µM (inactive)	> 100 µM (inactive)	> 100 µM (inactive)	> 100 µM (inactive)	> 100 µM (inactive)
CC(C)NC(=O)OCc1c(COC(=O)NC(C)C)n(C)c2c1ccc1sccc12	4.8 µM (inactive)	6.78 µM (inactive)	11.1 µM (inactive)	16.9 µM	20.9 µM (inactive)	23.4 µM (inactive)	15 µM (inactive)	5.33 µM (inactive)	3.65 µM (inactive)	15.7 µM (inactive)	12.8 µM (inactive)	30.6 µM (inactive)	> 100 µM (inactive)	12.2 µM (inactive)	18.1 µM (inactive)	15.9 µM (inactive)	16.2 µM (inactive)	17.3 µM (inactive)	15.8 µM (inactive)	9.14 µM (inactive)
C/C(=C/CO[Si](C)(C)C(C)(C)C)C(=O)N(C)c1ccccc1I	15.6 µM (inactive)	18.2 µM (inactive)	13 µM (inactive)	18.6 µM	18.4 µM (inactive)	19.8 µM (inactive)	16.5 µM (inactive)	14.7 µM (inactive)	15.6 µM (inactive)	15.9 µM (inactive)	15.3 µM (inactive)	14.2 µM (inactive)	16.9 µM (inactive)	16.6 µM (inactive)	17.9 µM (inactive)	17.2 µM (inactive)	17.6 µM (inactive)	14.8 µM (inactive)	13.3 µM (inactive)	14.8 µM (inactive)
COc1cccc(/C=N/NC(=O)CN(C)C)c1O	> 100 µM (inactive)	> 100 µM (inactive)	> 100 µM (inactive)	> 100 µM	> 100 µM (inactive)	> 100 µM (inactive)	> 100 µM (inactive)	> 100 µM (inactive)	> 100 µM (inactive)	> 100 µM (inactive)	> 100 µM (inactive)	> 100 µM (inactive)	> 100 µM (inactive)	> 100 µM (inactive)	> 100 µM (inactive)	> 100 µM (inactive)	> 100 µM (inactive)	> 100 µM (inactive)	> 100 µM (inactive)	> 100 µM (inactive)
ClCCCN(CCCCl)c1ccc(/C=N/c2cccc(Cl)c2)cc1	0.652 µM (active)	2.56 µM (inactive)	32.5 µM (inactive)	18.1 µM	18.7 µM (inactive)	11.8 µM (inactive)	20.5 µM (inactive)	9.55 µM (inactive)	30.5 µM (inactive)	19.1 µM (inactive)	9.75 µM (inactive)	22.1 µM (inactive)	6.95 µM (inactive)	14.2 µM (inactive)	55.8 µM (inactive)	10.4 µM (inactive)	12.9 µM (inactive)	7.11 µM (inactive)	29.4 µM (inactive)	15.8 µM (inactive)
O=C(NCCCCCCNCc1cccc2ccccc12)Nc1cccc2ccccc12	> 100 µM (inactive)	> 100 µM (inactive)	> 100 µM (inactive)	> 100 µM	> 100 µM (inactive)	> 100 µM (inactive)	> 100 µM (inactive)	> 100 µM (inactive)	> 100 µM (inactive)	> 100 µM (inactive)	> 100 µM (inactive)	63.1 µM (inactive)	> 100 µM (inactive)	> 100 µM (inactive)	> 100 µM (inactive)	> 100 µM (inactive)	> 100 µM (inactive)	> 100 µM (inactive)	> 100 µM (inactive)	51.6 µM (inactive)
CCC1(C(=O)OC(C)(C)C)OC12C(C)CCCC2C (stereo not given)	33.7 µM (inactive)	> 100 µM (inactive)	52.8 µM (inactive)	36 µM	48.9 µM (inactive)	21.8 µM (inactive)	37.3 µM (inactive)	31.9 µM (inactive)	24.5 µM (inactive)	34.3 µM (inactive)	28.1 µM (inactive)	> 100 µM (inactive)	78.7 µM (inactive)	19.8 µM (inactive)	> 100 µM (inactive)	62.1 µM (inactive)	29.5 µM (inactive)	32.9 µM (inactive)	31 µM (inactive)	48.5 µM (inactive)
O=C1CCSSCCC(=O)NCCN1	> 100 µM (inactive)	> 100 µM (inactive)	> 100 µM (inactive)	> 100 µM	> 100 µM (inactive)	> 100 µM (inactive)	> 100 µM (inactive)	> 100 µM (inactive)	> 100 µM (inactive)	> 100 µM (inactive)	> 100 µM (inactive)	> 100 µM (inactive)	> 100 µM (inactive)	> 100 µM (inactive)	> 100 µM (inactive)	> 100 µM (inactive)	> 100 µM (inactive)	> 100 µM (inactive)	> 100 µM (inactive)	> 100 µM (inactive)
CSC(=S)OC1CC(n2cnc3c(NC(=O)c4ccccc4)ncnc32)OC1CO[Si](C)(C)C(C)(C)C (stereo not given)	> 46.5 µM (inactive)	26.9 µM (inactive)	7.82 µM (inactive)	13.2 µM	28.6 µM (inactive)	3.78 µM (inactive)	5.6 µM (inactive)	11.1 µM (inactive)	7.18 µM (inactive)	11 µM (inactive)	7.57 µM (inactive)	49.4 µM (inactive)	13.3 µM (inactive)	4.35 µM (inactive)	33.3 µM (inactive)	14.4 µM (inactive)	12.5 µM (inactive)	5 µM (inactive)	14.7 µM (inactive)	4.4 µM (inactive)
COc1ccc(CC2COc3cc(OC)cc(OC)c3C2=O)cc1 (stereo not given)	17.5 µM (inactive)	21.8 µM (inactive)	15.3 µM (inactive)	9.51 µM	24.9 µM (inactive)	31 µM (inactive)	8.81 µM (inactive)	29.6 µM (inactive)	9.14 µM (inactive)	18.9 µM (inactive)	17.2 µM (inactive)	24.7 µM (inactive)	26.1 µM (inactive)	26.8 µM (inactive)	20.7 µM (inactive)	38.9 µM (inactive)	29.8 µM (inactive)	16.7 µM (inactive)	32.5 µM (inactive)	24.7 µM (inactive)
O=C1C(c2ccc([N+](=O)[O-])cc2)=C(Cl)C(=O)c2c(O)cccc21	23.7 µM (inactive)	20.7 µM (inactive)	27.9 µM (inactive)	25.5 µM	34.4 µM (inactive)	11.4 µM (inactive)	25.6 µM (inactive)	52.8 µM (inactive)	7.87 µM (inactive)	17.7 µM (inactive)	17.3 µM (inactive)	40.7 µM (inactive)	27.5 µM (inactive)	14.7 µM (inactive)	18.9 µM (inactive)	22.3 µM (inactive)	4.18 µM (inactive)	20.9 µM (inactive)	18.4 µM (inactive)	13.5 µM (inactive)
COc1cc([N+](=O)[O-])c(S(=O)(=O)O)cc1-n1nc(-c2ccccc2)n[n+]1-c1cc(S(=O)(=O)[O-])c([N+](=O)[O-])cc1OC	> 100 µM (inactive)	> 100 µM (inactive)	> 100 µM (inactive)	> 100 µM	> 100 µM (inactive)	> 100 µM (inactive)	> 100 µM (inactive)	> 100 µM (inactive)	> 100 µM (inactive)	> 100 µM (inactive)	> 100 µM (inactive)	> 100 µM (inactive)	> 100 µM (inactive)	> 100 µM (inactive)	> 100 µM (inactive)	> 100 µM (inactive)	> 100 µM (inactive)	> 100 µM (inactive)	> 100 µM (inactive)	> 100 µM (inactive)
